Values after ≈ are worked out from the molar mass of the structure shown. Where two headings read alike, the source gives them in different places.

One data set concerns skin. The data set can be described thus: Cumulative irritation study (cream vehicle). The format is in vivo. The note with it: different (cream) vehicle.
The test system of data set [1] is Propionibacterium acnes ATCC #11827. The data set is described as follows: Antimicrobial susceptibility testing (MIC) by the agar dilution method. Type of data set: cell-based. The note with it: Cutibacterium acnes. A general note: In agar dilution, organisms are placed on agar that contains the substance at set levels.
Data set [2] deals with patients with mild to moderate acne vulgaris. The data set is described as follows: Open label study of NV-02 in the topical treatment of mild to moderate acne vulgaris. The note with it: after topical NV-02 twice daily; varied between and within patients. The format is in vivo, human. The method, then: The results were from a study of twenty patients (5 males, 15 females) who were enrolled with varying ethnicity: Caucasian(12), African American (6), Hispanic (1), and Asian (1). The age range was from 20 to 48 years (mean 29.6 years). All subjects received open-label PCL-016 10% gel to be applied twice daily to the face over 12 weeks.
The experiment was performed as indicated for the per protocol analysis described under FIG. 1 above.
22, 2002 • Date of last completed: May 2, 2003 • Methodology: Open label study • Number of patients (planned and analyzed): 15 patients planned, 20 enrolled, 15 completed. • Diagnosis and main criteria for inclusion: mild to moderate acne vulgaris • Test product, dose and mode of administration, batch number: NV-02 applied twice daily to affected areas of the face; Novactyl lot number 155 • Duration of treatment: twice daily for 3 months • Criteria for evaluation: • Efficacy: Total lesion counts, inflammatory lesion count, non-inflammatory lesion count, and Cunliffe's grade, FDA scale • Safety: Adverse events, PCL-0 16 plasma levels, serum chemistry, complete blood count • Statistical Methods: descriptive statistics of patient population, patient demographics, and lesion counts, etc.; changes in lesion counts relative to baseline; percent reduction in lesion counts. […]

For another data set, the system named is acne lesions. As to conditions: cited from earlier work.

For `O=C(O)c1ccccn1` [Picolinic acid, pyridine-2-carboxylic acid], in the data set on skin, the “risk of topical irritation to the skin” value is listed as “low risk of topical irritation”. Moreover, in data set [1] (ATCC11827, P. acnes ATCC #11827, Supplemented Brucella agar with blood, 48-72 hours at 35±2° C., anaerobic, read-out: Minimum Inhibitory Concentration (MIC): lowest concentration that visibly prevented growth), the MIC came out at 500 µg/mL (≈ 4060 µM). In addition, the “absorption into the systemic circulation (plasma levels)” value in data set [2] is “Small amounts”.

Regarding `CC1=C(/C=C/C(C)=C/C=C/C(C)=C/C(=O)O)C(C)(C)CCC1` [Tretinoin], in the data set on acne lesions (topical agent on the market), the “reduction of total lesions counts” value was 32-45%. For the same compound, in the data set with acne lesions (topical), the photosensitization result is given as “photosensitizing”.

As to `CCCCc1ccc(C(=O)O)nc1` [fusaric acid], the MIC in data set [1] (ATCC11827, read-out: Minimum Inhibitory Concentration (MIC): lowest concentration that visibly prevented growth) is 100 µg/mL (≈ 558 µM).

Source of the values: patent US20050239723A1, “Compositions and methods useful for treatment of acne” (priority 2004, published 2005).
